Measurements from ChEMBL document CHEMBL1147261, “Xanthanolides, germacranolides, and other constituents from Carpesium longifolium” (J Nat Prod, 2003).
≈ marks a conversion by molar mass, not a printed value.

Experiments:
SMMC-7721 = assay: Cytotoxicity against human SMMC7721 cells by MTT assay; assay type: functional, cell-based
[1] = Cytotoxicity against human HO8910 cells by MTT assay; assay type: functional, cell-based; conditions: HO-8910

Compound `C=C1C(=O)O[C@@H]2C3O[C@]3(C)CC/C=C(\C)CC[C@@H]12` (stereo partly drawn) has an IC50 (SMMC-7721) of 4.2 µg/mL (≈ 16.9 µM) and an IC50 [1] of 1.37 µg/mL (≈ 5.52 µM).

`COc1ccc(C2CC(=O)c3c(O)cc(OC)cc3O2)cc1` (stereo not drawn) gave an IC50 (SMMC-7721) of over 200 µg/mL and an IC50 [1] of over 200 µg/mL.

`C/C1=C\CC[C@@]2(C)O[C@@H]2[C@H]2OC(=O)[C@@H](C)[C@@H]2CC1` [11BETA,13-DIHYDRO-PARTHENOLIDE] gave an IC50 (SMMC-7721) of over 200 µg/mL and an IC50 [1] of 158 µg/mL (≈ 631 µM).

Compound `CC[C@]1(O)C[C@H]2CN(CCc3c([nH]c4ccccc34)[C@@](C(=O)OC)(c3cc4c(cc3OC)N(C=O)[C@H]3[C@@](O)(C(=O)OC)[C@H](OC(C)=O)[C@]5(CC)C=CCN6CC[C@]43[C@@H]65)C2)C1` [VINCRISTINE] has an IC50 (SMMC-7721) of 20.7 µg/mL (≈ 25.1 µM) and an IC50 [1] of 1.37 µg/mL (≈ 1.66 µM).
